Measurements from patent US6531612B2, “Nitrile derivatives that inhibit cathepsin K” (Hoffman-La Roche Inc., priority 1999, dated 2003).

Tests used:
Type in all cases: biochemical
[1] = target: T1, human recombinant cathepsin K (Homo sapiens, UniProt P43235); assay: cathepsin K inhibitory activity (fluorogenic substrate Z-Leu-Arg-MCA); details: room temperature, enzyme 1 nM, substrate 5 μM, pH 5.5
T1 sequence (P43235 115-329): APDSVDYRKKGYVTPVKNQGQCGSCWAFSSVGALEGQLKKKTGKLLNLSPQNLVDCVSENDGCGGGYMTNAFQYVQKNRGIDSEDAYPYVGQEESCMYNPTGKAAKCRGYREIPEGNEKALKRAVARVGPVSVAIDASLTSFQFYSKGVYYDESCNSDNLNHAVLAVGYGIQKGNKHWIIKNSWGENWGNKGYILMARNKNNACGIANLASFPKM
Procedure: (§1) The inhibitory activity of the compounds against cathepsin K, S, L and B was tested at room temperature in 96-wells opaque white polystyrene plates (Costar). The cathepsin K inhibitory activity was tested as follows:
(§2) 5 μl of an inhibitor diluted in 5 mM sodium phosphate, NaCl 15 mM pH 7.4 containing 1% DMSO (final concentrations: 10−0.0001 μM) were preincubated for 10 min with 35 μl of human recombinant cathepsin K (final concentration: 1 nM) diluted in assay buffer (100 mM sodium acetate pH 5.5 containing 5 mM EDTA and 20 mM cysteine). After addition of 10 μl of the fluorogenic substrate Z-Leu-Arg-MCA diluted in assay buffer (final concentration: 5 μM), increase of fluorescence (excitation at 390 nm and emission at 460 nm) was measured for 7.5 min every 45 sec. The initial velocity (RFU/min) was derived from the linear fit of the 11 reading points.
(§3) The results are given as IC50 values which denote the concentration of the inhibitor at which the enzymatic activity is inhibited by 50%. The IC50 values are determined from a linear regression curve from a logit-log plot.

[2] = target: Human recombinant cathepsin S (Homo sapiens, UniProt P25774); assay: cathepsin S inhibitory activity (fluorogenic substrate Z-Val-Val-Arg-MCA); details: room temperature, enzyme 0.5 nM, substrate 20 μM, pH 6.5
Procedure: as §1, §2
Cathepsin S inhibitory activity was assayed analogeously to the cathepsin K inhibitory activity, except that the buffer was 100 mM potassium phosphate, 5 mM EDTA, 5 mM DTT (freshly added), 0.01% Triton X-100, pH 6.5 and the fluorogenic substrate was Z-Val-Val-Arg-MCA (Bachem) (final concentration: 20 μM). Human recombinant cathepsin S (Wiederanders et al., Eur. J. Biochem. 1997, 250, 745-750) was used at a final concentration of 0.5 nM.
as §3

human liver cathepsin L = target: T2, human liver cathepsin L (Homo sapiens, UniProt P07711); assay: cathepsin L inhibitory activity; details: room temperature, enzyme 3 nM, substrate 5 μM, pH 5.5
T2 construct: using human liver cathepsin L (Calbiochem) at a final concentration of 3 nM; purchased Calbiochem; host or cells: human liver (tissue-derived)
Procedure: as §1, §2
The cathepsin L inhibitory activity was assayed under the same conditions as the cathepsin K inhibitory activity using human liver cathepsin L (Calbiochem) at a final concentration of 3 nM.
as §3

human liver cathepsin B = target: T3, human liver cathepsin B (Homo sapiens, UniProt P07858); assay: cathepsin B inhibitory activity; details: room temperature, enzyme 1 nM, substrate 5 μM, pH 5.5
T3 construct: using human liver cathepsin B (Calbiochem) at a final concentration of 1 nM; purchased Calbiochem; host or cells: human liver (tissue-derived)
Procedure: as §1, §2
The cathepsin B inhibitory activity was assayed under the same conditions as the cathepsin K inhibitory activity using human liver cathepsin B (Calbiochem) at a final concentration of 1 nM.
as §3

T2 sequence (P07711 114-333): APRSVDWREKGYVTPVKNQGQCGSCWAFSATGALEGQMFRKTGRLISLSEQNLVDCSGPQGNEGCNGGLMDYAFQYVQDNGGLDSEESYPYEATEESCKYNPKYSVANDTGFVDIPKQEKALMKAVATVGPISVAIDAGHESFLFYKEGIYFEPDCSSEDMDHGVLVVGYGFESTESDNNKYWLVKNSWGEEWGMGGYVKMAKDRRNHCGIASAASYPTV
Human recombinant cathepsin S, sequence (P25774 115-331): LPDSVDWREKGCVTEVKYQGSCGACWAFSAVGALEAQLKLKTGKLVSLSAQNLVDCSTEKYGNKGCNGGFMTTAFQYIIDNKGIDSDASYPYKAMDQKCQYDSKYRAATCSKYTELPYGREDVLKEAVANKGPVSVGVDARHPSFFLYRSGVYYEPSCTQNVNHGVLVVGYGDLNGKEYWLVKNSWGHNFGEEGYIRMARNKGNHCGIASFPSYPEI

| Structure (SMILES) | IC50 [1] [nM] | IC50 [2] [µM] | IC50 (human liver cathepsin L) [µM] | IC50 (human liver cathepsin B) [nM] |
| --- | --- | --- | --- | --- |
| Cc1ccccc1C(C#N)NC(=O)[C@@H]1CCCN1C(=O)OCc1ccccc1 (mixture of isomers) [10.20, (S)-2-[(R)- and (S)-(Cyano-o-tolyl-methyl)-carbamoyl]-pyrrolidine-1-carboxylic acid benzyl ester] | 26 | > 10 | > 10 | > 10000 |
| N#C[C@H](NC(=O)[C@@H]1CCCN1C(=O)OCc1ccccc1)c1ccccc1 [10.2, (S)-2-[(R)-(Cyano-phenyl-methyl)-carbamoyl]-pyrrolidine-1-carboxylic acid benzyl ester] | 46 | > 10 | > 10 | 2800 |
| N#CC(NC(=O)[C@@H]1CCCN1C(=O)Cc1cccc(Br)c1)c1ccc2c(c1)OCO2 (stereo partly drawn) [11.1, (S)-1-[2-(3-Bromo-phenyl)-ethanoyl]-pyrrolidine-2-carboxylic acid (1-benzo[1,3]dioxol-5-yl-1-cyano-methyl)-amide] | 15 | > 10 | 7 | 2000 |
| N#CC(NC(=O)[C@@H]1CCCN1C(=O)OCc1ccccc1)c1cccc(Br)c1 (mixture of isomers) [10.22, (S)-2-{(R)- and (S)-[(3-Bromo-phenyl)-cyano-methyl]-carbamoyl}-pyrrolidine-1-carboxylic acid benzyl ester] | 16 | > 10 | > 10 | > 10000 |
| COc1ccc(C(C#N)NC(=O)[C@@H]2CCCN2C(=S)NCc2ccco2)cc1OC (mixture of isomers) [10.14, (S)-1-[(Furan-2-ylmethyl)-thiocarbamoyl]-pyrrolidine-2-carboxylic acid [(R)- and (S)-cyano-(3,4-dimethoxy-phenyl)-methyl]-amide] | 64 | > 10 | > 10 | 6200 |
| COc1ccc(C(C#N)NC(=O)[C@@H]2CCCN2C(=O)Cc2cccc(Br)c2)cc1OC (stereo partly drawn) [11.2, (S)-1-[2-(3-Bromo-phenyl)-ethanoyl]-pyrrolidine-2-carboxylic acid [1-cyano-1-(3,4-dimethoxy-phenyl)-methyl]-amide] | 18 | > 10 | > 10 | 600 |
| N#CC(NC(=O)[C@@H]1CCCN1C(=O)CCC1CCCC1)c1ccc2c(c1)OCO2 (mixture of isomers) [10.32, (S)-1-(3-Cyclopentyl-propionyl)-pyrrolidine-2-carboxylic acid ((R)- and (S)-benzo[l,3]dioxol-5-yl-cyano-methyl)-amide] | 37 | > 10 | > 10 | 600 |
| N#CC(NC(=O)[C@@H]1CCCN1C(=O)Cc1ccc(Br)cc1)c1ccc2c(c1)OCO2 (stereo partly drawn) [11.10, (S)-1-[2-(4-Bromo-phenyl)-ethanoyl]-pyrrolidine-2-carboxylic acid (1-benzo[1,3]dioxol-5-yl-1-cyano-methyl)-amide] | 26 | > 10 | > 10 | 4000 |
| COc1ccc(C(C#N)NC(=O)[C@@H]2[C@H](C)CCN2C(=O)OCc2ccccc2)cc1OC (mixture of isomers) [10.11, (2S,3R)-2-{(R)- and (S)-[Cyano-(3,4-dimethoxy-phenyl)-methyl]-carbamoyl}-3-methyl-pyrrolidine-1-carboxylic acid benzyl ester] | 68 | > 10 | > 10 | 600 |
| N#CC(NC(=O)[C@@H]1CCCN1C(=O)COCc1ccccc1)c1ccc2c(c1)OCO2 (mixture of isomers) [10.33, (S)-1-Benzyloxyacetyl-pyrrolidine-2-carboxylic acid ((R)- and (S)-benzo[1,3]dioxol-5-yl-cyano-methyl)-amide] | 27 | > 10 | > 10 | 2000 |
| N#CC(NC(=O)[C@@H]1CCCN1C(=O)OCc1ccccc1)c1ccc2c(c1)OCO2 (mixture of isomers) [10.9, (S)-2-[(R)- and (S)-(Benzo[l,3]dioxol-5-yl-cyano-methyl)-carbamoyl]-pyrrolidine-1-carboxylic acid benzyl ester] | 14 | > 10 | > 10 | 9500 |
| COc1cc(C(C#N)NC(=O)[C@@H]2CCCN2C(=O)OCc2ccccc2)ccc1OCc1ccccc1 (mixture of isomers) [10.28, (S)-2-{(R)- and (S)-[(4-Benzyloxy-3-methoxy-phenyl)-cyano-methyl]-carbamoyl}-pyrrolidine-1-carboxylic acid benzyl ester] | 45 | > 10 | > 10 | > 10000 |
